# Test results: PubChem BioAssay (NCI)
#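 Cells were grown in 96-well plates and exposed to each compound for 48 hours at five concentrations; endpoints were interpolated linearly between bracketing concentrations, or set to the highest concentration if not reached. GI50 = concentration required for 50% inhibition of growth. TGI: total growth inhibition.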
# Assays:
# Experiment in all cases: NCI tumour cell line growth inhibition, 48 h
# [1] = test system: 786-0 renal
# [2] = test system: A498 renal
# [3] = test system: A549 NSCLC
# [4] = test system: ACHN renal
# [5] = test system: CAKI-1 renal
# [6] = test system: CCRF-CEM leukemia
# [7] = test system: DU-145 prostate
# [8] = test system: EKVX NSCLC
# [9] = test system: HCC-2998 colon
# [10] = test system: HCT-116 colon
# [11] = test system: HCT-15 colon
# [12] = test system: HL-60(TB) leukemia
# [13] = test system: HS 578T breast
# [14] = test system: HT29 colon
# [15] = test system: IGROV1 ovarian
# [16] = test system: K-562 leukemia
# [17] = test system: KM12 colon
# [18] = test system: M14 melanoma
# [19] = test system: MALME-3M melanoma
# [20] = test system: MCF7 breast
# [21] = test system: MDA-MB-231 breast
# [22] = test system: MDA-MB-435
# [23] = test system: MOLT-4 leukemia
# [24] = test system: NCI-H226 lung
# [25] = test system: NCI-H23 lung
# [26] = test system: NCI-H460 lung
# [27] = test system: NCI/ADR-RES ovarian
# [28] = test system: OVCAR-3 ovarian
# [29] = test system: OVCAR-4 ovarian
# [30] = test system: OVCAR-5 ovarian
# [31] = test system: RPMI-8226 leukemia
# [32] = test system: SF-268 CNS
# [33] = test system: SK-MEL-2 melanoma
# [34] = test system: SK-MEL-28 melanoma
# [35] = test system: SK-MEL-5 melanoma
# [36] = test system: SK-OV-3 ovarian
# [37] = test system: SN12C renal
# [38] = test system: SNB-19 CNS
# [39] = test system: SR leukemia
# [40] = test system: SW-620 colon
# [41] = test system: TK-10 renal
# [42] = test system: U251 CNS
# [43] = test system: UACC-257 melanoma
# [44] = test system: UACC-62 melanoma
# [45] = test system: UO-31 renal
# [46] = test system: BT-549 breast
# [47] = test system: HOP-62 NSCLC
# [48] = test system: HOP-92 NSCLC
# [49] = test system: NCI-H522 lung
# [50] = test system: PC-3 prostate
# [51] = test system: RXF 393 renal
# [52] = test system: SF-295 CNS
# [53] = test system: SF-539 CNS
# [54] = test system: SNB-75 CNS
structure (smiles),measurement,setting,value
C[C@H](c1ccc(Cl)cc1N)N1C(=O)c2cc(I)ccc2N(CCCN2CCN(C)CC2)C(=O)[C@@H]1c1ccc(Cl)cc1,GI50,[1],1.83 µM
same,TGI,[1],3.37 µM
same,GI50,[2],1.3 µM
same,TGI,[2],2.7 µM
same,GI50,[3],1.3 µM
same,TGI,[3],2.57 µM
same,GI50,[4],1.22 µM
same,TGI,[4],2.5 µM
same,GI50,[5],1.3 µM
same,TGI,[5],2.81 µM
same,GI50,[6],1.63 µM
same,TGI,[6],3.47 µM
same,GI50,[7],1.79 µM
same,TGI,[7],3.31 µM
same,GI50,[8],1.55 µM
same,TGI,[8],3.21 µM
same,GI50,[9],1.63 µM
same,TGI,[9],3.03 µM
same,GI50,[10],1.3 µM
same,TGI,[10],2.63 µM
same,GI50,[11],1.68 µM
same,TGI,[11],3.2 µM
same,GI50,[12],1.89 µM
same,TGI,[12],3.69 µM
same,GI50,[13],1.74 µM
same,TGI,[13],3.84 µM
same,GI50,[14],1.82 µM
same,TGI,[14],3.47 µM
same,GI50,[15],1.29 µM
same,TGI,[15],3.12 µM
same,GI50,[16],1.57 µM
same,TGI,[16],3.3 µM
same,GI50,[17],1.78 µM
same,TGI,[17],3.24 µM
same,GI50,[18],1.96 µM
same,TGI,[18],3.65 µM
same,GI50,[19],0.242 µM
same,TGI,[19],1.27 µM
same,GI50,[20],1.15 µM
same,TGI,[20],2.41 µM
same,GI50,[21],1.53 µM
same,TGI,[21],2.97 µM
same,GI50,[22],1.81 µM
same,TGI,[22],3.57 µM
same,GI50,[23],1.75 µM
same,TGI,[23],3.59 µM
same,GI50,[24],1.33 µM
same,TGI,[24],2.86 µM
same,GI50,[25],2.18 µM
same,TGI,[25],5.86 µM
same,GI50,[26],1.32 µM
same,TGI,[26],2.71 µM
same,GI50,[27],1.7 µM
same,TGI,[27],3.6 µM
same,GI50,[28],1.8 µM
same,TGI,[28],3.28 µM
same,GI50,[29],1.74 µM
same,TGI,[29],3.43 µM
same,GI50,[30],1.77 µM
same,TGI,[30],3.44 µM
same,GI50,[31],1.7 µM
same,TGI,[31],3.69 µM
same,GI50,[32],1.7 µM
same,TGI,[32],3.2 µM
same,GI50,[33],1.81 µM
same,TGI,[33],3.37 µM
same,GI50,[34],1.69 µM
same,TGI,[34],3.08 µM
same,GI50,[35],1.57 µM
same,TGI,[35],2.92 µM
same,GI50,[36],1.81 µM
same,TGI,[36],3.2 µM
same,GI50,[37],1.59 µM
same,TGI,[37],3.03 µM
same,GI50,[38],1.52 µM
same,TGI,[38],2.9 µM
same,GI50,[39],1.01 µM
same,TGI,[39],2.6 µM
same,GI50,[40],1.72 µM
same,TGI,[40],3.14 µM
same,GI50,[41],1.61 µM
same,TGI,[41],3.07 µM
same,GI50,[42],1.52 µM
same,TGI,[42],2.85 µM
same,GI50,[43],1.24 µM
same,TGI,[43],2.69 µM
same,GI50,[44],1.23 µM
same,TGI,[44],2.54 µM
same,GI50,[45],0.359 µM
same,TGI,[45],1.9 µM
CCN1C(=O)N(CC)C2C1NN=c1s/c(=C3\C(=O)N(CCC(C)C)c4ccccc43)c(=O)n12 (configuration not stated),GI50,[1],1.83 µM
same,TGI,[1],4.5 µM
same,GI50,[2],0.477 µM
same,TGI,[2],2.59 µM
same,GI50,[4],1.86 µM
same,TGI,[4],6.7 µM
same,GI50,[46],1.96 µM
same,TGI,[46],6.33 µM
same,GI50,[5],0.686 µM
same,TGI,[5],4.17 µM
same,GI50,[6],2.66 µM
same,TGI,[6],> 100 µM
same,GI50,[7],2.91 µM
same,TGI,[7],9.33 µM
same,GI50,[8],1.34 µM
same,TGI,[8],> 100 µM
same,GI50,[9],1.92 µM
same,TGI,[9],4.54 µM
same,GI50,[10],1.06 µM
same,TGI,[10],2.49 µM
same,GI50,[11],1.31 µM
same,TGI,[11],3.75 µM
same,GI50,[12],2.12 µM
same,TGI,[12],4.5 µM
same,GI50,[47],1.89 µM
same,TGI,[47],6.45 µM
same,GI50,[48],1.47 µM
same,TGI,[48],5.83 µM
same,GI50,[13],1.08 µM
same,TGI,[13],4.87 µM
same,GI50,[15],1.23 µM
same,TGI,[15],6.63 µM
same,GI50,[16],0.586 µM
same,TGI,[16],> 100 µM
same,GI50,[17],0.616 µM
same,TGI,[17],11.4 µM
same,GI50,[20],0.412 µM
same,TGI,[20],41.9 µM
same,GI50,[21],1.66 µM
same,TGI,[21],3.42 µM
same,GI50,[22],0.308 µM
same,TGI,[22],1.14 µM
same,GI50,[23],2.86 µM
same,TGI,[23],> 100 µM
same,GI50,[24],2.52 µM
same,TGI,[24],7.69 µM
same,GI50,[25],1.9 µM
same,TGI,[25],5.47 µM
same,GI50,[49],1.01 µM
same,TGI,[49],4.18 µM
same,GI50,[28],1.75 µM
same,TGI,[28],4.33 µM
same,GI50,[29],1.02 µM
same,TGI,[29],> 100 µM
same,GI50,[50],2.91 µM
same,TGI,[50],> 100 µM
same,GI50,[31],1.68 µM
same,TGI,[31],5.77 µM
same,GI50,[51],0.738 µM
same,TGI,[51],3.62 µM
same,GI50,[32],2.8 µM
same,TGI,[32],20.5 µM
same,GI50,[52],1.34 µM
same,TGI,[52],3.86 µM
same,GI50,[53],1.11 µM
same,TGI,[53],2.42 µM
same,GI50,[33],2.32 µM
same,TGI,[33],11.4 µM
same,GI50,[34],2.58 µM
same,TGI,[34],> 100 µM
same,GI50,[35],1.55 µM
same,TGI,[35],3.41 µM
same,GI50,[36],2.53 µM
same,TGI,[36],18 µM
same,GI50,[37],2.01 µM
same,TGI,[37],4.99 µM
same,GI50,[38],2.39 µM
same,TGI,[38],11.5 µM
same,GI50,[54],0.802 µM
same,TGI,[54],2.5 µM
same,GI50,[39],0.456 µM
same,TGI,[39],> 100 µM
same,GI50,[40],1.08 µM
same,TGI,[40],> 100 µM
same,GI50,[41],9.44 µM
same,TGI,[41],71.7 µM
same,GI50,[42],1.88 µM
same,TGI,[42],9.81 µM
same,GI50,[43],3.72 µM
same,TGI,[43],> 100 µM
same,GI50,[44],0.607 µM
same,TGI,[44],8.04 µM
